Measured values: ChEMBL document CHEMBL1151074, “RATIONAL DESIGN, SYNTHESIS, AND SERINE PROTEASE INHIBITORY ACTIVITY OF NOVEL P1-ARGININOYL HETEROCYCLES” (Bioorg Med Chem Lett, 1997)

Legend:
[1] = biological target: Plasminogen (Rattus norvegicus, UniProt Q01177); test: Inhibitory concentration against plasmin.
[2] = biological target: Prothrombin (Homo sapiens, UniProt P00734); test: Inhibitory concentration against thrombin(FIIa).
[3] = biological target: Serine protease 1 (Homo sapiens, UniProt P07477); test: Inhibitory concentration against trypsin.
[4] = Inhibitory concentration against factor Xa(FXa).

Chain of Plasminogen (Q01177 97-581 limits assumed): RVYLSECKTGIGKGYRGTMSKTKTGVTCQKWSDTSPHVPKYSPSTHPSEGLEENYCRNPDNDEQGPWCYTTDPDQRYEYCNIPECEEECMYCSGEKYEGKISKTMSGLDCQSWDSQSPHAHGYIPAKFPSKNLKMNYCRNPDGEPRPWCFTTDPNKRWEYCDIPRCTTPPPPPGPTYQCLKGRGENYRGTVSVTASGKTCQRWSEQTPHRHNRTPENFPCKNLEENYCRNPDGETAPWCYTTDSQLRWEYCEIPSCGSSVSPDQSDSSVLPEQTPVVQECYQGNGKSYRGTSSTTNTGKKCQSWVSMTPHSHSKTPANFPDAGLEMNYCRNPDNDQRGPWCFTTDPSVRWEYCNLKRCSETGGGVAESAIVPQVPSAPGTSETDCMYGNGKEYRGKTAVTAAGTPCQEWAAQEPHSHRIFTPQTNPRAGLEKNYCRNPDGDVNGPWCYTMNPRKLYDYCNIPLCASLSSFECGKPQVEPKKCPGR
Chain of Plasminogen (Q01177 582-812 limits assumed): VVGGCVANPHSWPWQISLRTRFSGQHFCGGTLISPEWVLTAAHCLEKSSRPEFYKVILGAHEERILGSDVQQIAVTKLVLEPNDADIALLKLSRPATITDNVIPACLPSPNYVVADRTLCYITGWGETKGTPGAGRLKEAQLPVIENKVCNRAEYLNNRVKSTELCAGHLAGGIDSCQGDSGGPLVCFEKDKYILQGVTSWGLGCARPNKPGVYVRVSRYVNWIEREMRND
Chain of Serine protease 1 (P07477 whole entry): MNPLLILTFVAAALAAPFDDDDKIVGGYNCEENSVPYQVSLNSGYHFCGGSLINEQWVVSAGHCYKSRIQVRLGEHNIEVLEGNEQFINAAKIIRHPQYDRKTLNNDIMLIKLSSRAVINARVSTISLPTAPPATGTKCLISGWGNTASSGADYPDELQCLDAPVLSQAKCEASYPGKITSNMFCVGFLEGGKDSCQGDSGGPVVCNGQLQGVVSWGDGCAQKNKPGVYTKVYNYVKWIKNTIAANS

Q: For `CC(=O)N[C@H](Cc1ccccc1)C(=O)N1CCC[C@H]1C(=O)N[C@H]1CCCN(C(=N)N)C1O` (some centres undefined), which IC50 [1] is on record?
A: > 2500 nM

Q: And the IC50 [2]?
A: 284 nM

Q: What about the IC50 [3] of the same molecule?
A: 156 nM

Q: And the IC50 [4]?
A: > 2500 nM

Q: With `CC(C)(C)CC(=O)N[C@H](Cc1ccccc1)C(=O)N1CCC[C@H]1C(=O)N[C@@H](CCCNC(=N)N)C(=O)c1nc2ccccc2o1` as the molecule, how does the IC50 [1] read?
A: 1320 nM

Q: What about the IC50 [2] of the same molecule?
A: 68 nM

Q: What about the IC50 [3] of the same molecule?
A: 2.3 nM

Q: What about the IC50 [4] of the same molecule?
A: 110 nM

Q: With `CC(=O)N[C@H](Cc1ccccc1)C(=O)N[C@@H](Cc1cccc2ccccc12)C(=O)N[C@@H](CCCN=C(N)N)C(=O)c1nc2ccccc2o1` as the molecule, how does the IC50 [1] read?
A: 14.2 nM

Q: What about the IC50 [2] of the same molecule?
A: > 2500 nM

Q: And the IC50 [3]?
A: 6.4 nM

Q: And the IC50 [4]?
A: 29 nM

Q: For `CC(=O)N[C@H](Cc1ccccc1)C(=O)N[C@@H](Cc1cccc2ccccc12)C(=O)N[C@H]1CCCN(C(=N)N)C1O` (some centres undefined), which IC50 [1] is on record?
A: < 25 nM

Q: What about the IC50 [2] of the same molecule?
A: > 2500 nM

Q: What about the IC50 [3] of the same molecule?
A: 25 nM

Q: What does the source list for `CC(C)(C)CC(=O)N[C@H](Cc1ccccc1)C(=O)N1CCC[C@H]1C(=O)N[C@@H](CCCN=C(N)N)C(=O)c1nc2ccccc2[nH]1`?
A: IC50 [1]: > 2500 nM; IC50 [2]: 92.1 nM; IC50 [3]: 1010 nM; IC50 [4]: > 2500 nM
